Assay [1] concerns L-Trp uptake in BxPC-3 cells. Briefly: Trp uptake assay in BxPC-3 cells (HPLC-MS/MS). The class given is cell-based. The conditions noted are these: BxPC-3 starved for L-Trp 72 h, ±IFN-γ; 5 mM L-Leu, 1 mM 1-MT, 5 µM compound. As to the method: GraphPad Prism 9.0 (GraphPad Software, Inc, US) to generate dose-response curves and obtain […]
IDO1 promoter reporter gene assay
HEK293T cells (25,000 cells/well) were reverse-transfected with pXPG-IDO1[16] (4 µg/96-well plate, kindly provided by Gina M. Doody, Leeds, UK) and pRL-TK (300 ng/96-well plate, Promega, US) using Lipofectamine™ 2000 (Invitrogen, USA) pri or to incubation for 24 h. Afterwards, cells were treated with 50 ng/mL IFN-γ and the compounds for 48 h. Luminescence generated by the Fluc reporter and the control reporter Rluc was measured using the Dual-Glo ® Luciferase Assay System (Promega, US) on the Spark® Multimode Microplate Reader (Tecan, AT). To determine the IDO1 promoter activity, Fluc signals were divided by Rluc signals and normalized to the values of the DMSO control. Data analysis was performed using a non-linear regression curve fit and […]
BxPC-3 cells (30,000 cells/well) were seeded in 96-well plates in Trp-free RPMI 1640 medium and incubated for 48 h prior addition of 50 ng/mL IFN-γ. Trp starvation was continued for another 24 h. Afterwards, medium was exchanged for Trp-free medium containing the control inhibitors 5 mM L-Leu (inhibitor of system-L amino acid transporters (LAT)), 1 mM 1-methyl-L-tryptophan (inhibitor of tryptophanyl-tRNA synthetase (TrpRS)) and compounds and cells were incubated for 30 min. Subsequently, 50 µM L-Trp was added and samples were incubated for another 30 min.
The supernatant was transferred to a new plate, trichloroacetic acid was added to a final concentration of 7% (v/v) and plates were incubated for 15 min at room temperature. Samples were centrifuged for 10 min at 1800 x g and L-Trp was quantified by HPLC-MS/MS using the LTQ Velos Pro and Dionex HPLC (Thermo Fisher Scientific, US). Data analysis was performed with Xcalibur™ (Thermo Fisher Scientific, US) and repres ented using GraphPad Prism 9.0 (GraphPad […]
RNA purification and RT-qPCR
HeLa cells (250,000 cells/well) were seeded in 6-well plates and incubated for 24 h prior addition of 50 ng/mL IFN-γ and compounds. […]

In assay [2] the target is T1, Recombinant human His-IDO1 (rhIDO1) (Homo sapiens, UniProt P14902).
T1 construct: His; made in house; host or cells: E. coli
T1 sequence (P14902 whole entry): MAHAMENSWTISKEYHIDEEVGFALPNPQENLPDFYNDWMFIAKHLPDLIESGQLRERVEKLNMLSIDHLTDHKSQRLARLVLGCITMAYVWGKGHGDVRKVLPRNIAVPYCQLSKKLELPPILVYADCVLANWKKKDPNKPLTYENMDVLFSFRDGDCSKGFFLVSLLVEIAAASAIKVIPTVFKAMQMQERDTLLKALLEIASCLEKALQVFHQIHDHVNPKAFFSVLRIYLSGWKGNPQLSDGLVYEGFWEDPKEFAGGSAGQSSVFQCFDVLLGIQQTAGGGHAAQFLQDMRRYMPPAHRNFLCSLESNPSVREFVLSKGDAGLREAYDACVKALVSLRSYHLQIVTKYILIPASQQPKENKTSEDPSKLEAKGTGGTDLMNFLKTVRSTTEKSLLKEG
Put plainly: in vitro Kyn assay (IDO1 enzymatic assay). The assay is classed as biochemical.
Method: To detect direct inhibition, 1 µM rhIDO1 was incubated with compounds for 40 min at 37°C in 50 mM potassium phosphate buffer (16.9 mM K2HPO4, 33.1 mM, KH2PO4, pH 6.5).
Subsequently, 10 mM ascorbic acid, 10 μM methylene blue, 2 mM L-Trp and 100 μg/mL catalase were added and samples were incubated for 60 min at room temperature or 37°C. Trichloroacetic acid was added to a final concentration of 7% (v/v) and samples were incubated for 30 min at 70°C. Afterwards, an equal volume of freshly prepared 2% (w/v) p-DMAB in glacial acetic acid (Ehrlich reagent) was added prior to measuring absorbance at 492 nm and 650 nm on the Spark® Multimode Microplate Reader (Tecan, AT). To determine the Kyn levels, the absorbance of the Kyn-p-DMAB adduct A492 was subtracted by the background absorbance A650 and normalized to the DMSO control. Data analysis was performed using a non-linear regression curve fit and GraphPad Prism 9.0 (GraphPad Software, Inc, US) to generate dose-response curves and obtain

The target in a further assay is IDO1 (Homo sapiens, UniProt P14902). Briefly: In-Cell CETSA for IDO1 in SKOV-3 cells. The class given is cell-based. Also on record: endogenous in cells; host or cells: SKOV-3 (IFN-γ induced). The conditions noted are these: 15 min.
Chain of IDO1 (P14902 whole entry): as above

SMILES strings stand for the structures.

With `CCOC(=O)C1=CC[C@](C(=O)OC)(c2cc3ccccc3n2C)N(S(=O)(=O)c2ccc(C)cc2)[C@@H]1C(=O)OC(C)(C)C` [Compound 3d], the “uptake (import) of L-Trp” value in assay [1] is “does not interfere”. The “IDO1 enzymatic assay activity at 25 °C” value in assay [2] (25 °C) is “inactive”. Also, the “IDO1 activity after pre-incubation at 37 °C” value in assay [2] (holo-IDO1, 40 min at 37 °C) is recorded as “decreased IDO1 activity”. The “CETSA shift in Tm of IDO1 (result in words)” value at IDO1 (IFN-γ 24 h, 50 μM, no succinylacetone) is “did not lead to a shift”. In addition, the shift in melting temperature (ΔTm) at 30 µM on IDO1 (SK-OV-3, IFN-γ and 10 μM succinylacetone 24 h, 30 μM, read-out: CETSA ΔTm of apo-IDO1) came to 7.9 ± 0.6 °C.

One may read the ΔTm as the change in melting temperature against a reference sample.

(Values after paper PMC9804781, “Identification of a Novel Pseudo‐Natural Product Type IV IDO1 Inhibitor Chemotype” (Angewandte Chemie (International Ed. in English), 2022).)
